Experimental data taken from ChEMBL document CHEMBL3885881, “DrugMatrix”.

Species: Rattus norvegicus
Test: DrugMatrix - Regimen: Daily Repeat
Type: toxicity, organism-based, Sprague-Dawley
Parameters: regimen Daily Repeat, gender Male, age 6-8 weeks
Details: in vivo, po, route oral GAVAGE, vehicle 100 % WATER; for ABSOLUTE BASOPHIL / ABSOLUTE EOSINOPHIL / ABSOLUTE LYMPHOCYTE / ABSOLUTE MONOCYTE / ABSOLUTE SEGMENTED NEUTROPHIL / BASOPHIL / EOSINOPHIL / ERYTHROCYTE COUNT / HEMATOCRIT / HEMOGLOBIN / LEUKOCYTE COUNT / LYMPHOCYTE / MEAN CORPUSCULAR HEMOGLOBIN / MEAN CORPUSCULAR HEMOGLOBIN CONCENTRATION / MEAN CORPUSCULAR VOLUME / MONOCYTE / NEUTROPHIL / NUCLEATED RED BLOOD CELLS / PLATELET COUNT: tissue Blood; for ALANINE AMINOTRANSFERASE / ALBUMIN / ALKALINE PHOSPHATASE / ASPARTATE AMINOTRANSFERASE / BLOOD UREA NITROGEN / CARBON DIOXIDE / CHLORIDE / CHOLESTEROL / CREATINE PHOSPHOKINASE / CREATININE / GLUCOSE / LACTATE DEHYDROGENASE / LIPASE / PHOSPHORUS / POTASSIUM / SODIUM / TOTAL BILIRUBIN / TOTAL PROTEIN / URIC ACID: tissue Plasma
[1] = 1 mg/kg, 72 h, dose level Low, time 3 day
[2] = 1 mg/kg, 120 h, dose level Low, time 5 day
[3] = 84 mg/kg, 72 h, dose level High, time 3 day
[4] = 84 mg/kg, 120 h, dose level High, time 5 day

## Cc1nccn1CC1CCc2c(c3ccccc3n2C)C1=O (configuration not stated) [ONDANSETRON]
[1]
  ABSOLUTE BASOPHIL: 0 CELLS/uL
  ABSOLUTE EOSINOPHIL: 0 CELLS/uL
  ABSOLUTE LYMPHOCYTE: 12419.33 CELLS/uL
  ABSOLUTE MONOCYTE: 325.33 CELLS/uL
  ABSOLUTE SEGMENTED NEUTROPHIL: 1155.33 CELLS/uL
  BASOPHIL: 0%
  EOSINOPHIL: 0%
  ERYTHROCYTE COUNT: 5.53 x10E6/uL
  HEMATOCRIT: 34.87%
  HEMOGLOBIN: 13.27 G/DL
  LEUKOCYTE COUNT: 13.9 x10E3/uL
  LYMPHOCYTE: 89.33%
  MEAN CORPUSCULAR HEMOGLOBIN: 24 pg
  MEAN CORPUSCULAR HEMOGLOBIN CONCENTRATION: 38.07 G/DL
  MEAN CORPUSCULAR VOLUME: 63.03 fL
  MONOCYTE: 2.33%
  NEUTROPHIL: 8.33%
  NUCLEATED RED BLOOD CELLS: 0 /100WBC
  PLATELET COUNT: 1205.67 x10E3/uL
  ALANINE AMINOTRANSFERASE: 50.33 u/L
  ALBUMIN: 4.1 G/DL
  ALKALINE PHOSPHATASE: 392.33 u/L
  ASPARTATE AMINOTRANSFERASE: 92 u/L
  BLOOD UREA NITROGEN: 15.67 mg/dL
  CARBON DIOXIDE: 24.33 mmol/L
  CHLORIDE: 104 MEQ/L
  CHOLESTEROL: 74.33 mg/dL
  CREATINE PHOSPHOKINASE: 345 u/L
  CREATININE: 0.17 mg/dL
  GLUCOSE: 165.33 mg/dL
  LACTATE DEHYDROGENASE: 421 u/L
  LIPASE: 9.67 u/L
  PHOSPHORUS: 14.47 mg/dL
  POTASSIUM: 6.65 MEQ/L
  SODIUM: 147.47 MEQ/L
  TOTAL BILIRUBIN: 0.17 mg/dL
  TOTAL PROTEIN: 5.77 G/DL
  URIC ACID: 1.8 mg/dL
[2]
  ABSOLUTE BASOPHIL: 0 CELLS/uL
  ABSOLUTE EOSINOPHIL: 0 CELLS/uL
  ABSOLUTE LYMPHOCYTE: 15703.33 CELLS/uL
  ABSOLUTE MONOCYTE: 57.67 CELLS/uL
  ABSOLUTE SEGMENTED NEUTROPHIL: 1439 CELLS/uL
  BASOPHIL: 0%
  EOSINOPHIL: 0%
  ERYTHROCYTE COUNT: 5.66 x10E6/uL
  HEMATOCRIT: 36.67%
  HEMOGLOBIN: 14.17 G/DL
  LEUKOCYTE COUNT: 17.2 x10E3/uL
  LYMPHOCYTE: 91.33%
  MEAN CORPUSCULAR HEMOGLOBIN: 25.07 pg
  MEAN CORPUSCULAR HEMOGLOBIN CONCENTRATION: 38.6 G/DL
  MEAN CORPUSCULAR VOLUME: 64.9 fL
  MONOCYTE: 0.33%
  NEUTROPHIL: 8.33%
  NUCLEATED RED BLOOD CELLS: 0 /100WBC
  PLATELET COUNT: 1456 x10E3/uL
  ALANINE AMINOTRANSFERASE: 55 u/L
  ALBUMIN: 4.43 G/DL
  ALKALINE PHOSPHATASE: 362 u/L
  ASPARTATE AMINOTRANSFERASE: 77.33 u/L
  BLOOD UREA NITROGEN: 17 mg/dL
  CARBON DIOXIDE: 29 mmol/L
  CHLORIDE: 100.33 MEQ/L
  CHOLESTEROL: 72 mg/dL
  CREATINE PHOSPHOKINASE: 162.67 u/L
  CREATININE: 0.18 mg/dL
  GLUCOSE: 160.33 mg/dL
  LACTATE DEHYDROGENASE: 160.67 u/L
  LIPASE: 10.33 u/L
  PHOSPHORUS: 14.4 mg/dL
  POTASSIUM: 6.83 MEQ/L
  SODIUM: 146.07 MEQ/L
  TOTAL BILIRUBIN: 0.2 mg/dL
  TOTAL PROTEIN: 6.17 G/DL
  URIC ACID: 1.7 mg/dL
[3]
  ABSOLUTE BASOPHIL: 0 CELLS/uL
  ABSOLUTE EOSINOPHIL: 113.33 CELLS/uL
  ABSOLUTE LYMPHOCYTE: 15932.67 CELLS/uL
  ABSOLUTE MONOCYTE: 298.67 CELLS/uL
  ABSOLUTE SEGMENTED NEUTROPHIL: 1422 CELLS/uL
  BASOPHIL: 0%
  EOSINOPHIL: 0.67%
  ERYTHROCYTE COUNT: 5.63 x10E6/uL
  HEMATOCRIT: 35.6%
  HEMOGLOBIN: 14.17 G/DL
  LEUKOCYTE COUNT: 17.77 x10E3/uL
  LYMPHOCYTE: 90%
  MEAN CORPUSCULAR HEMOGLOBIN: 25.3 pg
  MEAN CORPUSCULAR HEMOGLOBIN CONCENTRATION: 39.83 G/DL
  MEAN CORPUSCULAR VOLUME: 63.53 fL
  MONOCYTE: 1.67%
  NEUTROPHIL: 7.67%
  NUCLEATED RED BLOOD CELLS: 0 /100WBC
  PLATELET COUNT: 1296 x10E3/uL
  ALANINE AMINOTRANSFERASE: 62.67 u/L
  ALBUMIN: 4.27 G/DL
  ALKALINE PHOSPHATASE: 366.67 u/L
  ASPARTATE AMINOTRANSFERASE: 100.67 u/L
  BLOOD UREA NITROGEN: 14.67 mg/dL
  CARBON DIOXIDE: 26.67 mmol/L
  CHLORIDE: 101.33 MEQ/L
  CHOLESTEROL: 73.67 mg/dL
  CREATINE PHOSPHOKINASE: 312.67 u/L
  CREATININE: 0.28 mg/dL
  GLUCOSE: 150 mg/dL
  LACTATE DEHYDROGENASE: 488.67 u/L
  LIPASE: 9.67 u/L
  PHOSPHORUS: 13.83 mg/dL
  POTASSIUM: 7.1 MEQ/L
  SODIUM: 145.17 MEQ/L
  TOTAL BILIRUBIN: 0.17 mg/dL
  TOTAL PROTEIN: 5.87 G/DL
  URIC ACID: 1.77 mg/dL
[4]
  ABSOLUTE BASOPHIL: 0 CELLS/uL
  ABSOLUTE EOSINOPHIL: 0 CELLS/uL
  ABSOLUTE LYMPHOCYTE: 12972 CELLS/uL
  ABSOLUTE MONOCYTE: 0 CELLS/uL
  ABSOLUTE SEGMENTED NEUTROPHIL: 828 CELLS/uL
  BASOPHIL: 0%
  EOSINOPHIL: 0%
  ERYTHROCYTE COUNT: 5.39 x10E6/uL
  HEMATOCRIT: 33.4%
  HEMOGLOBIN: 13.9 G/DL
  LEUKOCYTE COUNT: 13.8 x10E3/uL
  LYMPHOCYTE: 94%
  MEAN CORPUSCULAR HEMOGLOBIN: 25.8 pg
  MEAN CORPUSCULAR HEMOGLOBIN CONCENTRATION: 41.6 G/DL
  MEAN CORPUSCULAR VOLUME: 61.9 fL
  MONOCYTE: 0%
  NEUTROPHIL: 6%
  NUCLEATED RED BLOOD CELLS: 0 /100WBC
  PLATELET COUNT: 1460 x10E3/uL
  ALANINE AMINOTRANSFERASE: 63 u/L
  ALBUMIN: 4.2 G/DL
  ALKALINE PHOSPHATASE: 265 u/L
  ASPARTATE AMINOTRANSFERASE: 62 u/L
  BLOOD UREA NITROGEN: 20 mg/dL
  CARBON DIOXIDE: 30 mmol/L
  CHLORIDE: 103 MEQ/L
  CHOLESTEROL: 69 mg/dL
  CREATINE PHOSPHOKINASE: 151 u/L
  CREATININE: 0.29 mg/dL
  GLUCOSE: 150 mg/dL
  LACTATE DEHYDROGENASE: 89 u/L
  LIPASE: 10 u/L
  PHOSPHORUS: 11.8 mg/dL
  POTASSIUM: 6.81 MEQ/L
  SODIUM: 145.9 MEQ/L
  TOTAL BILIRUBIN: 0.1 mg/dL
  TOTAL PROTEIN: 6.2 G/DL
  URIC ACID: 1.4 mg/dL
